The source made the active and inactive calls.
What was measured:
[1] = molecular target: T1, Eukaryotic translation initiation factor 2-alpha kinase 3 (Homo sapiens, UniProt Q9NZJ5); assay: Counterscreen assay for PERK inhibitors: Dose response cell-based high throughput screening assay to measure inhibition of PERK at 6 hours. [Related pubchem assays: 1522, 1416 ]; format: functional
T1 sequence (Q9NZJ5 whole entry): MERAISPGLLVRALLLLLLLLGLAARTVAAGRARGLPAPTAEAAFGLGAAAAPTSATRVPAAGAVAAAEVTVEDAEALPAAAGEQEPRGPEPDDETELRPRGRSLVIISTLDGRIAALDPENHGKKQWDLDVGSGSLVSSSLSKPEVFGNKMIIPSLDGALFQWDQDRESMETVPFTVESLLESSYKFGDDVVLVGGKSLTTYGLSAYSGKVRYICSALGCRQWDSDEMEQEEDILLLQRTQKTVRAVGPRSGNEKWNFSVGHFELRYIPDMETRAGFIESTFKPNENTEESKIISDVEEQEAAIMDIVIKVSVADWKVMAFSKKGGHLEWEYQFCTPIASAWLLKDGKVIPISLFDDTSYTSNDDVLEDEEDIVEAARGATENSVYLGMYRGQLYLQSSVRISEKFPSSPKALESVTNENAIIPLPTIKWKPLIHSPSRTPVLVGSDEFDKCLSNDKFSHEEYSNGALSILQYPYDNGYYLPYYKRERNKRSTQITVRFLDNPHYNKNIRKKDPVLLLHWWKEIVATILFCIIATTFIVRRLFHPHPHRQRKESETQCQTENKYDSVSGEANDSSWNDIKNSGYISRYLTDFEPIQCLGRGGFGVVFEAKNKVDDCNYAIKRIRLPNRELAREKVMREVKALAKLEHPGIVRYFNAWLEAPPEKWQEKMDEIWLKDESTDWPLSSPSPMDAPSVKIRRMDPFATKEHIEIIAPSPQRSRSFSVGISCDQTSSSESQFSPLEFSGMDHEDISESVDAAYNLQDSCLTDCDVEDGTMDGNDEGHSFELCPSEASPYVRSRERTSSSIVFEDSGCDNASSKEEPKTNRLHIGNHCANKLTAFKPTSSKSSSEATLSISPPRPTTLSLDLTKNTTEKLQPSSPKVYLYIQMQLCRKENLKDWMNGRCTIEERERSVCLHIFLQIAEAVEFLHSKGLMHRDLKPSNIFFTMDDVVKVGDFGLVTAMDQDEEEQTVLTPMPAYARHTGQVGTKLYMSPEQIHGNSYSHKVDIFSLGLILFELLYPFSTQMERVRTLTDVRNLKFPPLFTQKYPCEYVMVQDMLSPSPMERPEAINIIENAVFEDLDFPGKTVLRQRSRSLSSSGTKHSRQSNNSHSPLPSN

[2] = molecular target: T1, Eukaryotic translation initiation factor 2-alpha kinase 3; assay: Dose response cell-based high-throughput screening assay to measure PERK inhibition. [Related pubchem assays: 1416 ]; format: functional
Vero = assay: cells; format: functional; conditions: Chlorocebus sabaeus
[3] = tested on: Streptococcus sp. 'group A'; assay: Streptococcus pyogenes SK(-)GAS viability under kanamycin – luminescence, BacTiterGlo, confirmation, counter-screen for streptokinase expression inhibitor project, dose response (AID 1900); format: functional, organism-based
[4] = NIH3T3 cell viability loss – ATP luminescence, mouse fibroblasts, counter-screen, dose response (AID 2010); format: functional, cell-based;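 also: cells exposed to compound for about 90 hours before reading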
[5] = viability of HCT116 lacking mutant beta-catenin – cell-based, human colon tumor, dose response (AID 1045); format: functional;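 also: HCT116 colon tumor cells with beta catenin knocked out; cells exposed to compound for 60 hours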
Streptococcus = assay: GAS UMAA2166 growth inhibition – luminescence, BacTiterGlo, counter-screen for streptokinase expression inhibitor project, dose response (AID 1915); format: functional, organism-based;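 also: potency for reduction of bacterial viability or growth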
[6] = viability of PTEN-deleted HCT116 cells – cell-based, HCT116 PTEN knockout, dose response (AID 1047); format: functional;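 also: HCT116 colon tumor cells with PTEN knocked out; cells exposed to compound for 60 hours before readout; potency for loss of cell viability measured by luminescence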
[7] = molecular target: Lysosomal acid glucosylceramidase (Homo sapiens, UniProt P04062); assay: Dose response cell-based high throughput screening assay to identify enhancers of beta-glucosidase activity. [Related pubchem assays: 784 ]; format: functional
Chain of Lysosomal acid glucosylceramidase (P04062 whole entry): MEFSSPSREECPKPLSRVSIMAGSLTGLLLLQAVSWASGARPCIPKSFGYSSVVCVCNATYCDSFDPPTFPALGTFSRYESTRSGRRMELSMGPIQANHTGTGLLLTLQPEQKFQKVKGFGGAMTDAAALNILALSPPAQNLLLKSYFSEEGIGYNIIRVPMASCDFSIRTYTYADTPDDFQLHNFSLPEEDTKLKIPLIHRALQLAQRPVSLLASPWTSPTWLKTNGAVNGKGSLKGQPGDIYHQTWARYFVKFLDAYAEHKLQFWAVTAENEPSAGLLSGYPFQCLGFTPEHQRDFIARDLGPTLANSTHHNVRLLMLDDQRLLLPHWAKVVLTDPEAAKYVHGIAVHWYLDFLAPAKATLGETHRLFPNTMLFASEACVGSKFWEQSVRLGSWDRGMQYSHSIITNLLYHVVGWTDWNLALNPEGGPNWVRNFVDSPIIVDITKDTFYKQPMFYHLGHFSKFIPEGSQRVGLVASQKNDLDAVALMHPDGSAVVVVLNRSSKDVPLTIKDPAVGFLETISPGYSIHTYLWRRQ

Streptokinase A = molecular target: T2, Streptokinase A (Streptococcus pyogenes serotype M1, UniProt P10520); assay: viability-normalized secreted streptokinase activity reduction – plasminogen activation absorbance, OD405, dose response (AID 1914); format: functional, Streptococcus pyogenes M1 GAS;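 also: secreted streptokinase activity via plasminogen activation per viability signal from cell pellet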
T2 sequence (P10520 whole entry): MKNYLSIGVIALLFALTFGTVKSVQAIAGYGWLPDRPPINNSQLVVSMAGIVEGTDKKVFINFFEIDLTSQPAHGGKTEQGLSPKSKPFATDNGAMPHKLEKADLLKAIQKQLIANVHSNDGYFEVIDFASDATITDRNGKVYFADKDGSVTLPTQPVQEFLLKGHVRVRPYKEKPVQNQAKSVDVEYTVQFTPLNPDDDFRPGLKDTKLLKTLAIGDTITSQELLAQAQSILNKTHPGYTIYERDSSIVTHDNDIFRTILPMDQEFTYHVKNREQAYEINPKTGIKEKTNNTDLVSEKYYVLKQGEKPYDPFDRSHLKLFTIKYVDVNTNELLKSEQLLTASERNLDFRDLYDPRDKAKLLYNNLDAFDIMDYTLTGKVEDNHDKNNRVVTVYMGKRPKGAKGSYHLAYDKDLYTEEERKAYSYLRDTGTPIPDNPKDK

[8] = Trypanosoma cruzi growth suppression in host cells – NIH3T3 host cells, beta-gal luminescence, confirmation (AID 2044); format: functional, cell-based;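 also: intracellular parasites grown in NIH/3T3 mouse fibroblasts as host cells; luminescent beta-galactosidase reporter signal from transgenic T. cruzi replicating inside host cells; inhibitors lower the luminescence signal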
[9] = molecular target: DNA dC->dU-editing enzyme APOBEC-3G (Homo sapiens, UniProt Q9HC16); assay: Dose Response confirmation of small molecule APOBEC3G DNA Deaminase Inhibitors via a fluorescence-based single-stranded DNA deaminase assay. [Related pubchem assays (depositor defined):AID493012, AID493028]; format: functional
Chain of DNA dC->dU-editing enzyme APOBEC-3G (Q9HC16 whole entry): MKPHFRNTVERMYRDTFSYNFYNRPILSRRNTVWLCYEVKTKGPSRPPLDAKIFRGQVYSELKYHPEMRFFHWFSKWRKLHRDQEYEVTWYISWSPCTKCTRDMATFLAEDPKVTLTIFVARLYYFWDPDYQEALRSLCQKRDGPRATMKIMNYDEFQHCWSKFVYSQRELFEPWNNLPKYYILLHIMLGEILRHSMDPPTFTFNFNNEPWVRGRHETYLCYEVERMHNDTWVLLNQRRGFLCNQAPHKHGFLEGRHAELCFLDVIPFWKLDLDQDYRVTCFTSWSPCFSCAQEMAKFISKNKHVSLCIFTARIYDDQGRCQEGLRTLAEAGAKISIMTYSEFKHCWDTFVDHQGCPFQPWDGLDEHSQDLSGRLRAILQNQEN

[10] = molecular target: T3, Mannose-6-phosphate isomerase (Homo sapiens, UniProt P34949); assay: MPI enzyme activity inhibition – biochemical, fluorescence intensity, coupled assay, primary screen (AID 1209)
T3 sequence (P34949 whole entry): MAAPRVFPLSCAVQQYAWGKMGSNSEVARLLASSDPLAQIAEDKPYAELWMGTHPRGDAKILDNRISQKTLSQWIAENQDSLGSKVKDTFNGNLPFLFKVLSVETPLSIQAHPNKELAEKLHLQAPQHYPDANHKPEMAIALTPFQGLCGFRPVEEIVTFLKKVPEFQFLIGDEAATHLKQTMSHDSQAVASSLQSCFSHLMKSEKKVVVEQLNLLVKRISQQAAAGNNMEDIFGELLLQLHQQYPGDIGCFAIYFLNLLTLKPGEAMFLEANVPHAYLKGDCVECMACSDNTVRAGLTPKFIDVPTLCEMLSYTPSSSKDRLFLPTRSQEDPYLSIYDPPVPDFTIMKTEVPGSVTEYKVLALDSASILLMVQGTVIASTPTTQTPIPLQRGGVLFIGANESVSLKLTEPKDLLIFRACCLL

[11] = molecular target: T3, Mannose-6-phosphate isomerase; assay: MPI inhibition at elevated mannose 6-phosphate – biochemical, fluorescence intensity, high mannose 6-phosphate, primary screen (AID 1220)
[12] = molecular target: DNA dC->dU-editing enzyme APOBEC-3A (Homo sapiens, UniProt P31941); assay: A3A deaminase inhibition for selectivity – biochemical, dose response (AID 504722); format: functional
Chain of DNA dC->dU-editing enzyme APOBEC-3A (P31941 whole entry): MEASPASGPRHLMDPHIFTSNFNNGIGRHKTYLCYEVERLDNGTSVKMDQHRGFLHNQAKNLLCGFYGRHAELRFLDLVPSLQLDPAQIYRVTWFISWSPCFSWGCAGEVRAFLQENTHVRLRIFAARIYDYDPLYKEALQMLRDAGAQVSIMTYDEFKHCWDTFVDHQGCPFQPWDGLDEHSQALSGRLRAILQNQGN

Bcl-2-like protein 10 = molecular target: T4, Bcl-2-like protein 10 (Homo sapiens, UniProt Q9HD36); assay: Bcl-B/TR3 peptide binding disruption – biochemical, fluorescence polarization, FITC-TR3 peptide, selectivity assay for Bfl-1 inhibitor project, primary screen (AID 748);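 also: fluorescence polarization from a fluorescein-labelled TR3 peptide binding purified Bcl-B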
T4 sequence (Q9HD36 whole entry): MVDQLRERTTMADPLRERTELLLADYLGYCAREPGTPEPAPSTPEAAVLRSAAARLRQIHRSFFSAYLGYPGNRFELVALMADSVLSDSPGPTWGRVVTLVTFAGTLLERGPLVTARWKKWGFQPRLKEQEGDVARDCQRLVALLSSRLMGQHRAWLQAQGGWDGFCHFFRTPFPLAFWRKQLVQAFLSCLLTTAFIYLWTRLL

Estrogen receptor beta [13] = molecular target: T5, Estrogen receptor beta (Homo sapiens, UniProt Q92731);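 also: recombinant ER-beta bound to coactivator SRC1 peptide in presence of estradiol agonist; inhibitors block coactivator peptide binding and lower the FRET signal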
T5 sequence (Q92731 whole entry): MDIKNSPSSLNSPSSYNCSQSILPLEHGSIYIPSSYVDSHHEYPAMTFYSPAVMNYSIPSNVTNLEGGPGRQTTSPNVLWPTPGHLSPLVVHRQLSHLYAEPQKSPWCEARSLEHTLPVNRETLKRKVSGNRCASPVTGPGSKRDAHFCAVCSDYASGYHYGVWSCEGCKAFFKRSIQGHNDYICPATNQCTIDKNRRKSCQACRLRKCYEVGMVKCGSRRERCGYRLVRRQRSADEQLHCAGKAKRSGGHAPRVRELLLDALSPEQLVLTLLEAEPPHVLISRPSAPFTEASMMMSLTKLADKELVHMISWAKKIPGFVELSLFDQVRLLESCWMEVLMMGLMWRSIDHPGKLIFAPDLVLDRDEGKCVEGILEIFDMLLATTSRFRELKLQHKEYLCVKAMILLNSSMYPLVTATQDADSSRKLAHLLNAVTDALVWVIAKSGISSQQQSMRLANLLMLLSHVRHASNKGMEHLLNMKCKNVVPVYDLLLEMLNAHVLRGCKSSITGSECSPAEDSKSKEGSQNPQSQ

Estrogen receptor beta [14] = molecular target: T5, Estrogen receptor beta; assay: blockers of SRC-3 recruitment to ERβ – biochemical, ELISA, streptavidin-HRP readout, orthogonal assay, confirmation (AID 1060)
[15] = reduced cellular PGC1a acetyl-lysine signal – cell-based, cherry-picked samples, dose response (AID 720514); format: functional;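 also: potency may reflect raised or lowered acetylation signal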
Cytochrome P450 2C9 = Cytochrome P450 2C9 (Homo sapiens, UniProt P11712)
Chain of Cytochrome P450 2C9 (P11712 whole entry): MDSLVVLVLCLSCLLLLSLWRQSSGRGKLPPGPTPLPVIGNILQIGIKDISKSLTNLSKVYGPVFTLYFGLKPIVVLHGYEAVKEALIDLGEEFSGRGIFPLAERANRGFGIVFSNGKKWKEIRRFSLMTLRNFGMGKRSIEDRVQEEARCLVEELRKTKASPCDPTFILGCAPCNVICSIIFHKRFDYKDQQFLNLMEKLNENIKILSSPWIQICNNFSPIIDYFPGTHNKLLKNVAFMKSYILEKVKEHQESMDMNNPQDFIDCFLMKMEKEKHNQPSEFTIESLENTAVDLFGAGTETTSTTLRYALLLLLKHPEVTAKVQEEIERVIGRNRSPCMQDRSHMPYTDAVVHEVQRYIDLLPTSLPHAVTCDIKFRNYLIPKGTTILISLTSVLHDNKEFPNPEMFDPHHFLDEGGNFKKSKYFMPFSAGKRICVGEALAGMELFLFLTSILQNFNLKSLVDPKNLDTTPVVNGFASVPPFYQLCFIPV

[16] = DRD fibroblast viability loss – cell-based, non-viral oncogenic, luminescence, dose response (AID 1934); format: functional; conditions: Homo sapiens
BJ [17] = assay: cells; format: functional, cell-based; conditions: Homo sapiens
BJ [18] = assay: BJ-TERT fibroblast viability loss – cell-based, RAS-independent, luminescence, dose response (AID 1933); format: functional; conditions: Homo sapiens
HeLa = assay: viability loss in HeLa cells – cell-based, 24 h, cherry-picked samples, cytotoxicity control, dose response (AID 504726); format: functional; conditions: Homo sapiens;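 also: potency for cytotoxicity as loss of luminescence signal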
[19] = molecular target: T6, Hepatocyte nuclear factor 4-alpha (Homo sapiens, UniProt P41235); format: functional, cell-based;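 also: biochemical luminescence-based dose-response counterscreen measuring inhibition of HNF4 dimerization, run alongside a screen for blockers of ABHD5–perilipin-5 interaction; split luciferase complementation of HNF4 fusion proteins in cell lysate measuring dimerization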
T6 sequence (P41235 whole entry): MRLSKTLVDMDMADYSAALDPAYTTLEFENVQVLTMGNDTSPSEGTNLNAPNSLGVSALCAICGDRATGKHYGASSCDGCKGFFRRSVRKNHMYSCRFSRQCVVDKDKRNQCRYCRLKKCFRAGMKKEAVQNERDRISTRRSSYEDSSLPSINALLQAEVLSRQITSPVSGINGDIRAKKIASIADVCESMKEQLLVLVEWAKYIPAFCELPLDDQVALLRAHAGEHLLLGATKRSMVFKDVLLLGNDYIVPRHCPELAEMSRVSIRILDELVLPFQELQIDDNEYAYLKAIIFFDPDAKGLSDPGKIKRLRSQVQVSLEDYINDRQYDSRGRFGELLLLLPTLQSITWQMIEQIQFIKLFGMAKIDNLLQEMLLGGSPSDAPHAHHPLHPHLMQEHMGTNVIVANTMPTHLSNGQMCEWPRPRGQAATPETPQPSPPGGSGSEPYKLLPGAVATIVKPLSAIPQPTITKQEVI

BJ [20] = assay: BJ-TERT-LT-ST fibroblast viability loss – cell-based, RAS-independent, luminescence, dose response (AID 1935); format: functional; conditions: Homo sapiens;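 also: BJ fibroblasts immortalized with TERT plus LT and ST oncogenes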

SMILES: CCOC(=O)c1c(C)noc1-c1ccc(Br)o1
- EC50 [1]: > 55.7 µM (not active)
- EC50 [2]: > 55.7 µM (not active)

SMILES: CC(C)Cn1c(N)c(C(=O)NCc2cccs2)c2nc3ccccc3nc21
- CC50 (Vero): 14 µM (active)
- EC50 [3]: 3.56 µM (active)
- EC50 [4]: > 60 µM (not active)
- EC50 [5]: 47 µM (active)
- EC50 (Streptococcus): 7.88 µM (active)
- EC50 [6]: 36 µM (active)
- EC50 [7]: 2.49 µM (active)
- EC50 (Streptokinase A): 30.2 µM (active)
- EC50 [8]: 2.17 µM (active)

SMILES: CC1(C)Cc2c(sc3ncn4c(S)nnc4c23)CO1
- IC50 [9]: 3.8 µM (active)
- IC50 [10]: > 50 µM (not active)
- IC50 [11]: > 50 µM (not active)
- IC50 [12]: > 100 µM (inactive)

SMILES: COc1ccc(C(N)CCc2ccc(C)o2)cc1 (stereo not drawn)
- IC50 (Bcl-2-like protein 10): > 50 µM (inactive)
- IC50 (Estrogen receptor beta [13]): 6.8 µM (active)
- IC50 (Estrogen receptor beta [14]): 93.7 µM (not active)

SMILES: CCC(=O)Nc1cccc(C(=O)/C=C/c2ccccc2)c1
- AC50 [15]: 14.2 µM (active)
- AC50 (Cytochrome P450 2C9): inconclusive
- EC50 [16]: 11.2 µM (active)
- EC50 [5]: 2.34 µM (active)
- EC50 (BJ [17]): 26 µM (active)
- EC50 (BJ [18]): 9.74 µM (inconclusive)
- AC50 (HeLa): 23.6 µM (active)
- EC50 [6]: 2.4 µM (active)
- IC50 [19]: 2.86 µM (active)
- EC50 (BJ [20]): 20.9 µM (inconclusive)
